Laboratory results as given in PubChem BioAssay AID208 (DTP/NCI, 2004).
Records with an inconclusive call do not appear. *1 amine or outer side, *2 acyl side, *3 side chain or, on linkers, in order; H or OH if unused. Where a SMILES comes first, the peptide text is derived from it. Bridges are numbered along the chain shown (N, C = ends). Roman numbers before positions name the chains, in order. [ ]: non-standard residue; d: D form. Actinocin(9to1) = Cc1c2oc3c(C)ccc(C(=O)[*:1])c3nc-2c(C(=O)[*:2])c(N)c1=O; aThr = C[C@H](O)[C@H](N)C(=O)O; NMeV = CN[C@H](C(=O)O)C(C)C; Sar = CNCC(=O)O

Tested on: HT29 intrarenal xenograft, nude mice, tumor weight change
Test: NCI In Vivo Anticancer Drug Screen. Data for tumor model HT29;CX-1 Human Adenocarcinoma (MER+) (intrarenal inoculation) in NU/NU BALB/C (nude) mice
Details: endpoint: mean tumor weight change, higher = larger tumour
Procedure: The antitumor activity of compounds was measured in mice bearing transplantable tumors. Survival or tumor size were measured and the results are expressed as the measurement made in the treated group (T) divided by the measurement made in the vehicle treated control group (C). The tumor model used in this assay is HT29;CX-1 Human Adenocarcinoma (MER+) (intrarenal inoculation) in NU/NU BALB/C (nude) mice

[1] = dose: 12.5 mg/kg/injection, schedule: Q04DX004 (sc), vehicle: saline
[2] = dose: 25.0 mg/kg/injection, schedule: Q04DX004 (sc), vehicle: saline
[3] = dose: 37.5 mg/kg/injection, schedule: Q04DX004 (sc), vehicle: saline with Tween-80
[4] = dose: 150.0 mg/kg/injection, schedule: Q04DX004 (sc), vehicle: saline
[5] = dose: 300.0 mg/kg/injection, schedule: Q04DX004 (sc), vehicle: saline
[6] = dose: 600.0 mg/kg/injection, schedule: Q04DX004 (sc), vehicle: saline
[7] = dose: 5.0 mg/kg/injection, schedule: Q04DX004 (sc), vehicle: saline
[8] = dose: 150.0 mg/kg/injection, schedule: Q04DX004 (sc), vehicle: saline with Tween-80
[9] = dose: 300.0 mg/kg/injection, schedule: Q04DX004 (sc), vehicle: saline with Tween-80
[10] = dose: 50.0 mg/kg/injection, schedule: Q04DX004 (sc), vehicle: saline
[11] = dose: 100.0 mg/kg/injection, schedule: Q04DX004 (sc), vehicle: saline

For `ClCCCN1CCCCC1CCl` (stereo not drawn), the T/C (dose: 6.25 mg/kg/injection, schedule: Q04DX004 (sc), vehicle: saline) was 57 % of control, the T/C [1] was 95 % of control and the T/C [2] was 71 % of control.
With `Nc1ccc(Cn2ccc3c4c(N)nc(N)nc4ccc32)cc1` the T/C (dose: 18.75 mg/kg/injection, schedule: Q04DX004 (sc), vehicle: saline with Tween-80) was 60 % of control and the T/C [3] was 58 % of control.
With `COc1cc2c(ccc3c4cc(OC)c(OC)cc4c[n+](C)c23)cc1O` the T/C (dose: 75.0 mg/kg/injection, schedule: Q04DX004 (sc), vehicle: saline) was 49 % of control, the T/C [4] was 42 % of control and the T/C [5] was 51 % of control. For the same compound, the T/C [6] was 75 % of control.
With `O=NN(CCCl)C(=O)NC1OC(CO)C(O)C(O)C1O` (stereo not drawn) the T/C [7] was 75 % of control, the T/C (dose: 10.0 mg/kg/injection, schedule: Q04DX004 (sc), vehicle: saline) was 76 % of control and the T/C (dose: 20.0 mg/kg/injection, schedule: Q04DX004 (sc), vehicle: saline) was 57 % of control.
For `CCCC(=O)O.CCCC(=O)O.CCCC(=O)O.CCCC(=O)O.[Rh].[Rh]`, the T/C (dose: 4.0 mg/kg/injection, schedule: Q04DX004 (sc), vehicle: suspension in saline) was 99 % of control and the T/C (dose: 8.0 mg/kg/injection, schedule: Q04DX004 (sc), vehicle: suspension in saline) was 118 % of control.
With `O=C(O)CCCc1ccc(N(CCCl)CCCl)cc1` the T/C (dose: 0.13 mg/kg/injection, schedule: Q04DX004 (ip), vehicle: Klucel (hydroxypropylcellulose) (HPC)) was 70 % of control, the T/C (dose: 0.2 mg/kg/injection, schedule: Q04DX004 (ip), vehicle: Klucel (hydroxypropylcellulose) (HPC)) was 77 % of control and the T/C (dose: 0.3 mg/kg/injection, schedule: Q04DX004 (ip), vehicle: Klucel (hydroxypropylcellulose) (HPC)) was 35 % of control. For the same compound, the T/C (dose: 40.0 mg/kg/injection, schedule: Q04DX004 (ip), vehicle: Klucel (hydroxypropylcellulose) (HPC)) was 54 % of control.
In the case of `CC(=O)Oc1[nH]c(=O)c2cccc3c2c1CCC3`, the T/C [8] is reported as 207 % of control and the T/C [9] is reported as 105 % of control.
`Nc1ccc(S(=O)(=O)Nc2cnc3c(Cl)cccc3n2)cc1` was tested, and the T/C (dose: 300.0 mg/kg/injection, schedule: Q04DX004 (ip), vehicle: DMSO) was 85 % of control.
In the case of `O=C1OC(C(O)CO)C(O)=C1O` (stereo not drawn), the T/C (dose: 400.0 mg/kg/injection, schedule: Q01DX010 (sc), vehicle: saline) is reported as 113 % of control and the T/C (dose: 800.0 mg/kg/injection, schedule: Q01DX010 (sc), vehicle: saline) is reported as 167 % of control.
For `COc1cc(C2c3cc4c(cc3C(O)C(CO)C2CO)OCO4)cc(OC)c1OC` (stereo not drawn), the T/C (dose: 200.0 mg/kg/injection, schedule: Q04DX004 (sc), vehicle: saline with Tween-80) was 72 % of control, the T/C (dose: 400.0 mg/kg/injection, schedule: Q04DX004 (sc), vehicle: saline with Tween-80) was 49 % of control and the T/C (dose: 800.0 mg/kg/injection, schedule: Q04DX004 (sc), vehicle: saline with Tween-80) was 96 % of control. For the same compound, the T/C (dose: 1600.0 mg/kg/injection, schedule: Q04DX004 (sc), vehicle: saline with Tween-80) was 30 % of control.
With `C1OC1CO[C@@H]1CO[C@H]2[C@@H]1OC[C@H]2OCC1CO1` (stereo partly drawn) the T/C (dose: 50.0 mg/kg/injection, schedule: Q01DX010 (sc), vehicle: saline with Tween-80) was 121 % of control, the T/C (dose: 100.0 mg/kg/injection, schedule: Q01DX010 (sc), vehicle: saline with Tween-80) was 64 % of control and the T/C (dose: 200.0 mg/kg/injection, schedule: Q01DX010 (sc), vehicle: saline with Tween-80) was 103 % of control.
For `COc1cc2c3c(cccc3c1)C(=O)N(CCN(C)C)C2=O`, the T/C [3] was 72 % of control, the T/C (dose: 75.0 mg/kg/injection, schedule: Q04DX004 (sc), vehicle: saline with Tween-80) was 98 % of control and the T/C [8] was 74 % of control. For the same compound, the T/C [9] was 105 % of control.
For `CNc1nc(NC)nc(NC)n1`, the T/C (dose: 12.5 mg/kg/injection, schedule: Q01DX010 (sc), vehicle: Klucel (hydroxypropylcellulose) (HPC)) was 154 % of control and the T/C (dose: 50.0 mg/kg/injection, schedule: Q01DX010 (sc), vehicle: Klucel (hydroxypropylcellulose) (HPC)) was 73 % of control.
For `C/C=C/C=C/c1cc2cc3c(c(O)c2c(=O)[nH]1)C1(CC3)C(O)=c2c(=O)c3c(=O)cc(OC)c(=O)c=3c(=O)c2=C1O` (stereo not drawn), the T/C (dose: 6.0 mg/kg/injection, schedule: Q04DX004 (sc), vehicle: DMSO) was 75 % of control, the T/C (dose: 12.0 mg/kg/injection, schedule: Q04DX004 (sc), vehicle: DMSO) was 77 % of control and the T/C (dose: 24.0 mg/kg/injection, schedule: Q04DX004 (sc), vehicle: DMSO) was 61 % of control. For the same compound, the T/C (dose: 48.0 mg/kg/injection, schedule: Q04DX004 (sc), vehicle: DMSO) was 58 % of control.
For `CC(C)C(N)C(=O)Nc1nncs1` (stereo not drawn), the T/C [4] was 94 % of control, the T/C [5] was 74 % of control and the T/C [6] was 68 % of control.
`N=C1CCCS1` was tested, and the T/C [1] was 117 % of control, the T/C [2] was 151 % of control and the T/C [10] was 96 % of control. The T/C [11] was 62 % of control.
With `Cc1c2oc3c(C)ccc(C(=O)N[C@@H]4C(=O)N[C@H](C(C)C)C(=O)N5CCC[C@H]5C(=O)N(C)CC(=O)N(C)[C@@H](C(C)C)C(=O)O[C@H]4C)c3nc-2c(C(=O)N[C@@H]2C(=O)N[C@H](C(C)C)C(=O)N3CCC[C@H]3C(=O)N(C)CC(=O)N(C)[C@@H](C(C)C)C(=O)O[C@H]2C)c(N)c1=O` (I: [aThr][dV]P[Sar][NMeV] / II: [aThr][dV]P[Sar][NMeV]; ester I:1-I:C, II:1-II:C; linker I:N-II:N via Actinocin(9to1)) the T/C (dose: 0.03 mg/kg/injection, schedule: Q04DX004 (ip), vehicle: saline) was 77 % of control, the T/C (dose: 0.05 mg/kg/injection, schedule: Q04DX004 (ip), vehicle: saline) was 77 % of control and the T/C (dose: 0.08 mg/kg/injection, schedule: Q04DX004 (ip), vehicle: saline) was 97 % of control.
For `CCOC(=O)NC1=C(N2CC2)C(=O)C(NC(=O)OCC)=C(N2CC2)C1=O`, the T/C (dose: 1.56 mg/kg/injection, schedule: Q01DX010 (sc), vehicle: saline) was 120 % of control, the T/C (dose: 3.13 mg/kg/injection, schedule: Q01DX010 (sc), vehicle: saline) was 88 % of control and the T/C (dose: 6.25 mg/kg/injection, schedule: Q01DX010 (sc), vehicle: saline) was 107 % of control.
`C[C@@H]1CC[C@]2(C)CC[C@]3(C)C(=CC[C@@H]4[C@@]5(C)CC[C@@H](OC(=O)c6ccc(O)cc6)C(C)(C)[C@@H]5C[C@H](O)[C@]43C)[C@@H]2[C@H]1C(=O)O` was tested, and the T/C (dose: 0.62 mg/kg/injection, schedule: Q04DX004 (sc), vehicle: saline with Tween-80) was 79 % of control, the T/C (dose: 1.25 mg/kg/injection, schedule: Q04DX004 (sc), vehicle: saline with Tween-80) was 109 % of control and the T/C (dose: 2.5 mg/kg/injection, schedule: Q04DX004 (sc), vehicle: saline with Tween-80) was 59 % of control.
With `C=CC(C)NC(=S)NNC(=S)NC` (stereo not drawn) the T/C (dose: 150.0 mg/kg/injection, schedule: Q04DX004 (sc), vehicle: saline + alcohol) was 91 % of control, the T/C (dose: 300.0 mg/kg/injection, schedule: Q04DX004 (sc), vehicle: saline + alcohol) was 44 % of control and the T/C (dose: 600.0 mg/kg/injection, schedule: Q04DX004 (sc), vehicle: saline + alcohol) was 97 % of control. For the same compound, the T/C (dose: 1200.0 mg/kg/injection, schedule: Q04DX004 (sc), vehicle: saline + alcohol) was 74 % of control.
With `Cc1ccc(S(=O)(=O)N/N=C/C(Br)=C(/Br)C(=O)O)cc1` the T/C (dose: 1.25 mg/kg/injection, schedule: Q04DX004 (sc), vehicle: saline) was 103 % of control, the T/C (dose: 2.5 mg/kg/injection, schedule: Q04DX004 (sc), vehicle: saline) was 78 % of control and the T/C [7] was 105 % of control.
With `CNC(=O)ON(C(C)=O)C(=O)NC` the T/C [2] was 114 % of control, the T/C [10] was 80 % of control and the T/C [11] was 56 % of control.
With `CN(C)N=Nc1cccc(C(N)=O)c1` the T/C (dose: 25.0 mg/kg/injection, schedule: Q04DX004 (sc), vehicle: Klucel (hydroxypropylcellulose) (HPC)) was 91 % of control, the T/C (dose: 50.0 mg/kg/injection, schedule: Q04DX004 (sc), vehicle: Klucel (hydroxypropylcellulose) (HPC)) was 85 % of control and the T/C (dose: 100.0 mg/kg/injection, schedule: Q04DX004 (sc), vehicle: Klucel (hydroxypropylcellulose) (HPC)) was 123 % of control.
With `O=C(O)CC(NC(=O)CP(=O)(O)O)C(=O)O` (stereo not drawn) the T/C (dose: 25.0 mg/kg/injection, schedule: Q01DX010 (sc), vehicle: saline) was 123 % of control, the T/C (dose: 50.0 mg/kg/injection, schedule: Q01DX010 (sc), vehicle: saline) was 94 % of control and the T/C (dose: 100.0 mg/kg/injection, schedule: Q01DX010 (sc), vehicle: saline) was 91 % of control. For the same compound, the T/C (dose: 200.0 mg/kg/injection, schedule: Q01DX010 (sc), vehicle: saline) was 70 % of control.
